Results reported in PubChem BioAssay (NCI).
Several values for one entry are separate records, joined by “and”; a condition that tells them apart may be missing. Identical values can stand only once.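 A five-concentration, 48-hour dose response in 96-well plates underlies each endpoint, interpolated linearly between surrounding concentrations. GI50: concentration for 50% inhibition of growth. Definition used: TGI = concentration required for complete inhibition of growth.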

Tests used:
Test in all cases: growth of human tumour cells (NCI), 48 h
HCT-15 colon = system: HCT-15 colon
DU-145 prostate = system: DU-145 prostate
OVCAR-5 ovarian = system: OVCAR-5 ovarian
HOP-62 NSCLC = system: HOP-62 NSCLC
A549 NSCLC = system: A549 NSCLC
TK-10 renal = system: TK-10 renal
OVCAR-4 ovarian = system: OVCAR-4 ovarian
SR leukemia = system: SR leukemia
SW-620 colon = system: SW-620 colon
SK-OV-3 ovarian = system: SK-OV-3 ovarian

Structure (SMILES)	GI50 (HCT-15 colon)	TGI (HCT-15 colon)	GI50 (DU-145 prostate)	TGI (DU-145 prostate)	GI50 (OVCAR-5 ovarian)	TGI (OVCAR-5 ovarian)	GI50 (HOP-62 NSCLC)	TGI (HOP-62 NSCLC)	GI50 (A549 NSCLC)	TGI (A549 NSCLC)	GI50 (TK-10 renal)	TGI (TK-10 renal)	GI50 (OVCAR-4 ovarian)	TGI (OVCAR-4 ovarian)	GI50 (SR leukemia)	TGI (SR leukemia)	GI50 (SW-620 colon)	TGI (SW-620 colon)	GI50 (SK-OV-3 ovarian)	TGI (SK-OV-3 ovarian)
O=C([O][Sn]([O]C(=O)c1ccccn1)([c]1ccccc1)[c]1ccccc1)c1ccccn1	6.95 µM	20.4 µM	1.93 µM	4.19 µM	16.5 µM	30.1 µM	16.5 µM	31.5 µM	17.6 µM	31.5 µM	2.63 µM	5.2 µM	7.53 µM	20.3 µM	1.22 µM	11.3 µM	1.13 µM	2.34 µM	55.5 µM	> 100 µM
C=C1C(=O)OC2CC(C)C3CC(O)OC(OCC)C3(C)CC12 (stereo not drawn)		21.3 µM		> 100 µM		54.4 µM		47.6 µM		> 96.6 µM		45.2 µM		50.3 µM		> 63.1 µM		19 µM		87.2 µM
CC(C)=CCC(OC(=O)C=C(C)C)C1=CC(=O)c2c(O)ccc(O)c2C1=O (stereo not drawn)	1.07 µM	3.22 µM and 1.13 µM	1.72 µM	3.92 µM	5.77 µM	25.6 µM and 8.83 µM		25.7 µM and 24.4 µM		18.7 µM	0.738 µM	2.41 µM	1.73 µM	4.16 µM and 1.48 µM	0.123 µM	> 100 µM	0.327 µM	1.27 µM and 0.867 µM	21.2 µM	49.8 µM and 12.4 µM
CC1=Nc2ccccc2/C1=C\c1c(C)[nH]c2ccccc12		31.5 µM		31.2 µM		50.9 µM		69.7 µM		73.6 µM		32.2 µM		47.1 µM		47.5 µM		28.5 µM		51.8 µM
Cc1nc2ccc(NC(=O)CCNC(=O)CCCc3ccc(CC(C(=O)O)C(=O)O)cc3)cc2s1	> 100 µM	> 100 µM	> 100 µM	> 100 µM	> 100 µM	> 100 µM	> 100 µM	> 100 µM	> 100 µM	> 100 µM	> 100 µM	> 100 µM	> 100 µM	> 100 µM	> 100 µM	> 100 µM	> 100 µM	> 100 µM	> 100 µM	> 100 µM
OCc1ccc(-c2cscc2-c2ccc(CO)o2)o1	> 80.1 µM	> 100 µM	25.9 µM	> 100 µM	0.216 µM	1.97 µM	3.55 µM	37.6 µM	3.89 µM	30.6 µM	> 100 µM	> 100 µM	4.79 µM	49.4 µM	> 100 µM	> 100 µM	7.14 µM	> 100 µM	8.98 µM	50.3 µM
Cc1c(-c2ccnc(N)n2)c2c(n1Cc1ccccc1)C(=O)c1ccccc1C2=O	4.8 µM	> 100 µM	9.82 µM	41.2 µM	47.4 µM	> 100 µM	13.9 µM	43.6 µM	> 100 µM	> 100 µM	17.3 µM	66.8 µM	20.7 µM	> 100 µM	1.84 µM	4.52 µM	6.82 µM	> 100 µM	18.2 µM	77.4 µM
